± gives the standard deviation.
Assay: chemical recovery from spiked human plasma; higher = better extraction
Settings: pooled human plasma
[1] = extraction method: SPE only (HLB 96-well)
[2] = extraction method: SPE only (HLB 96-well), PES comparison experiment
[3] = extraction method: PES+SPE (3 d PDMS equilibration then HLB SPE)
[4] = extraction method: solvent precipitation (ACN + hexane)

Structure (SMILES)	chemical recovery [1] [%]	chemical recovery [2] [%]	chemical recovery [3] [%]	chemical recovery [4] [%]
CCCCCCCCCCC[C@@H](C[C@@H]1OC(=O)[C@H]1CCCCCC)OC(=O)[C@H](CC(C)C)NC=O [Orlistat]	3.21 ± 3.3	6 ± 3.7	–	–
N#Cc1c(O)c(Cl)c(Cl)c(C#N)c1Cl [Chlorothalonil-4-hydroxy]	32.4 ± 3	33.8 ± 7.8	37.1 ± 5.2	–
CC(C)(c1ccccc1)c1cc(-n2nc3ccccc3n2)c(O)c(C(C)(C)c2ccccc2)c1 [UV-234]	0.688 ± 0.28	–	–	–
CCCCCCCCOC(=O)CCc1cc(C(C)(C)C)c(O)c(C(C)(C)C)c1 [Octyl-3,5-di-tert-butyl-4-hydroxyhydrocinnamate]	–	0.29 ± 0.58	–	–
CNC(=O)O/N=C(\C)SC [Methomyl]	47.3 ± 1.8	–	50.6 ± 5	75.8 ± 3.8
O=S(=O)(O)CCC(F)(F)C(F)(F)C(F)(F)C(F)(F)C(F)(F)C(F)(F)F [6.2 fluorotelomer sulfonic acid]	35.9 ± 1.7	43.1 ± 5	–	75.6 ± 2.9
Nc1ccc(Oc2ccc(N)cc2)cc1 [4,4'-Oxydianiline]	8.07 ± 0.83	–	0.849 ± 0.6	26.3 ± 9
C[C@@]12CCC[C@H]1[C@@H]1CC[C@H]3C[C@@H](O)CC[C@]3(C)[C@H]1CC2 [Androstanol]	1.3 ± 0.4	–	–	44.7 ± 6
O=C1C[C@@H]2OCC=C3CN4CC[C@]56c7ccccc7N1[C@H]5[C@H]2[C@H]3C[C@H]46 [Strychnine]	–	–	–	59.5 ± 4.5
CCCCCCS(=O)(=O)O [1-Hexanesulfonic-acid]	30.6 ± 4.2	–	31.6 ± 3.8	74.2 ± 8.3
N[C@@H](Cc1cc(I)c(Oc2ccc(O)c(I)c2)c(I)c1)C(=O)O [3,3',5-Triiodo-L-thyronine]	–	–	–	56.3 ± 2.7
Nc1c(Cl)c(Cl)nc(C(=O)O)c1Cl [Picloram]	34.9 ± 2.7	–	29.5 ± 5.1	63.3 ± 3.8
c1cc2c3c(cccc3c1)CC2 [Acenaphthene]	9.53 ± 0.88	3.64 ± 1.1	–	–
Cc1ccccc1NC(=N)Nc1ccccc1C [1,3-Di-o-tolylguanidine]	34.2 ± 2.8	–	20.9 ± 2.6	64.5 ± 1.7
COc1c(Cl)ccc(Cl)c1C(=O)O [Dicamba]	37.9 ± 3.7	–	42.3 ± 2.6	–
Cn1sc(Cl)cc1=O [Methylchloroisothiazolinone]	0.906 ± 0.2	0.321 ± 0.64	–	0.0132 ± 0.023
ClC1=C(Cl)C2(Cl)C3C4OC4C(Cl)C3C1(Cl)C2(Cl)Cl (configuration not stated) [Heptachlor epoxide]	1.06 ± 0.28	–	–	18.7 ± 2.8
Oc1c(Cl)cc(Cl)c2cccnc12 [5,7-Dichloro-8-hydroxyquinoline]	21.3 ± 1.8	–	–	–
CC(C)CCCCCCOC(=O)C1CCCCC1C(=O)OCCCCCCC(C)C (configuration not stated) [DINCH]	6.04 ± 3.4	4.77 ± 1.6	–	–
CCCCCCN [Hexylamine]	8.65 ± 5.7	–	3.2 ± 1.1	19.7 ± 6
CCOP(=S)(OCC)SCSC(C)(C)C [Terbufos]	14.7 ± 4.8	–	–	–
O=C(CC(C(=O)OC1CCCCC1)S(=O)(=O)O)OC1CCCCC1 (configuration not stated) [Dicyclohexyl sulfosuccinate]	27.6 ± 3.1	37.1 ± 6.9	37.7 ± 3.3	71.8 ± 3.4
Cc1ccc2cc3c(ccc4ccccc43)c3c2c1CC3 [3-Methylcholanthrene]	0.839 ± 0.34	–	–	58.3 ± 3.3
CC(=O)c1ccc2ccccc2c1 [2-Acetonaphthone]	–	80.9 ± 10	–	–
CN(C1CCCCC1)C1CCCCC1 [N-Methyl-dicyclohexylamine]	30.9 ± 1.6	–	0.654 ± 0.19	50.9 ± 7.1
CC(C)(c1ccc(O)cc1)c1ccc(O)cc1 [Bisphenol-A]	45.4 ± 3.8	–	69.8 ± 4.4	–

From the supplement of paper PMC10702517
